Experimental data taken from paper PMC5056396, “Hexokinase I N-terminal based peptide prevents the VDAC1-SOD1 G93A interaction and re-establishes ALS cell viability” (Scientific Reports, 2016).

Tests used:
[1] = tested on: SOD1 G93A binding to intact mitochondria purified from NSC34 cells; assay: Mitochondrial binding assay of SOD1 G93A after pre-incubation with peptide; design: species or system mouse; conditions: scramble control
Experimental: The ability of NHK1 to inhibit SOD1 G93A from binding the mitochondrial surface was investigated using intact mitochondria purified from NSC34 cells. Mitochondria were incubated with SOD1 G93A, in the presence or absence of 60 μM NHK1 peptide. […] Following incubation with NHK1, a dramatic decrease of 85% SOD1 G93A bound to mitochondria was seen (Fig. 5D). Again, no effect was found by incubating mitochondria with the ScNHK1 peptide.
Intact mitochondria were purified from NSC34 cells by Mitochondrial isolation kit (Miltenyi Biotech), according with manufacturer’s instructions. Isolated, intact mitochondria, in the storage buffer provided, were quantified by Lowry method. Mitochondria were incubated with 2 μg of purified SOD1 WT or G93A for 1 h at RT, under constant shaking in storage buffer. Alternatively, a pre-incubation with 60 μM NHK1 peptide for 1 h, in the same condition, was performed. Mitochondrial pellet was collected by centrifugation for 2 min at 13000×g. Supernatants were collected, and mitochondrial pellets were lysed using 3% Triton X-100. Proteins in mitochondrial or supernatant fraction were detected by western blot and quantified as explained in Supplementary Information. At least, three independent experiments were performed.

NSC34-SOD1G93A cells = assay: Cell viability assay (MTT); assay type: cell-based, mouse; conditions: expression from transfected plasmid
Description: (§1) In order to analyze the effect of NHK1 peptide in our ALS-like in cellulo system, the subcellular distribution of NHK1 peptide was investigated. NSC34 cells were transiently transfected with a plasmid encoding for a HA-tagged NHK1 peptide and for a mitochondrial-targeted Red Fluorescent Protein (mtDsRED)[18]. […] Then, the NHK1 peptide, as well as the whole HK1 as control, was expressed in NSC34-SOD1G93A or SOD1WT to evaluate its ability to counteract the toxicity mediated by mutSOD1. Literature reports indicate that SOD1 mutants expression in NSC34 cell promote a significative loss of cell viability, accordingly with the specific mutation. […] Therefore, supplementation of NHK1 peptide (or HK1) to NSC34-SOD1G93A cells promotes a recovery of the cell viability.
24 h-induced NSC34-SOD1WT and NSC34-SOD1G93A cells seeded on 24-well plates were transfected using 0,25 μg of pEGFP-N1-HK1 or empty pEGFP-N1 or 0,5 μg of pMCS-mtDsRED-NHK1 or scramble or empty pCMS-mtDsRED. Cell viability was analyzed using 3-(4,5-dimethylthiazol-2-yl)-2,5-diphenyltetrazolium bromide (MTT)[47] (Sigma). A colorimetric assay was performed using the microplate reader Varioskan (Thermo Scientific). Reported data are representative for three sets of independent experiments, each performed in triplicate. Data were statistically analyzed using one-way ANOVA followed by Bonferroni post hoc test. […]

NSC34 cells = assay: Subcellular distribution by indirect immunofluorescence; assay type: cell-based, mouse; conditions: HA-tagged NHK1 expressed from plasmid with mtDsRED, transient transfection
Description: as §1
Plasmids and cell transfection […]
NSC34 cells not transfected or transfected with 0,5 µg of pCMS-mtDsRED-NHK1-HA were fixed in 3.7% formaldehyde and permeabilized using 0.3% Triton X-100. […] Endogenous HK1 was detected in not transfected cells by incubating over-night cells with rabbit anti-HK1 antibody (1:100) (Abcam). NHK1-HA was detected in transfected cells by incubating over-night cells with rabbit anti-HA antibody (1:100) (Santa Cruz Biotechnology, Inc.). […]
examined by fluorescence microscopy. […]

Row | Sequence | effect on SOD1 G93A bound to mitochondria [1] | effect on cell viability of NSC34-SOD1G93A (NSC34-SOD1G93A cells) | subcellular localization (NSC34 cells)
1 | FAQLTIALAYY [ScNHK1, scramble peptide (…) synthetized and used as control, reference compound] | no effect | does not change the cell viability | –
2 | IAAQLLAYYFT [NHK1, peptide corresponding to residues 2–12 (N-terminal region) of human HK1 protein (…)] | – | – | mainly co-localized with mtDsRED signal
